Source: PubChem BioAssay (NCI)
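48-hour exposure; five concentrations; linearly interpolated endpoints. GI50: concentration for 50% inhibition of growth. TGI marks complete inhibition of growth.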

Key:
Assay in all cases: NCI-60 cell line screen, 48 h
CCRF-CEM leukemia = system: CCRF-CEM leukemia
UO-31 renal = system: UO-31 renal
NCI-H23 lung = system: NCI-H23 lung
BT-549 breast = system: BT-549 breast
SK-MEL-28 melanoma = system: SK-MEL-28 melanoma
COLO 205 colon = system: COLO 205 colon
SNB-19 CNS = system: SNB-19 CNS
SK-MEL-5 melanoma = system: SK-MEL-5 melanoma
MCF7 breast = system: MCF7 breast
NCI-H226 lung = system: NCI-H226 lung

| Compound | GI50 (CCRF-CEM leukemia) [µM] | TGI (CCRF-CEM leukemia) [µM] | GI50 (UO-31 renal) [µM] | TGI (UO-31 renal) [µM] | GI50 (NCI-H23 lung) [nM] | TGI (NCI-H23 lung) [µM] | GI50 (BT-549 breast) [µM] | TGI (BT-549 breast) [µM] | GI50 (SK-MEL-28 melanoma) [nM] | TGI (SK-MEL-28 melanoma) [µM] | GI50 (COLO 205 colon) [µM] | TGI (COLO 205 colon) [µM] | GI50 (SNB-19 CNS) [µM] | TGI (SNB-19 CNS) [µM] | GI50 (SK-MEL-5 melanoma) [nM] | TGI (SK-MEL-5 melanoma) [µM] | GI50 (MCF7 breast) [µM] | TGI (MCF7 breast) [µM] | GI50 (NCI-H226 lung) [µM] | TGI (NCI-H226 lung) [µM] |
| --- | --- | --- | --- | --- | --- | --- | --- | --- | --- | --- | --- | --- | --- | --- | --- | --- | --- | --- | --- | --- |
| COc1cc2ncnc(-n3ncc4cc(NC(=O)Nc5ccc(Cl)c(Cl)c5)ccc43)c2cc1OC | 4.01 | 42.3 | 2.04 | 4.17 | 1930 | 4.24 | 1.97 | 4.17 | 1570 | 3.24 | 2.32 | 5.58 | 2.66 | 9.58 | 2090 | 3.89 | 1.85 | 4.56 | 2.45 | 4.8 |
| CN1CCN(Cc2ccc(NC(=O)c3cncc(C#Cc4cnc(N)cc4C#N)c3)cc2C(F)(F)F)CC1 | 3.4 | 42.7 | 2 | 6.95 | 2240 | 13.7 | 4.25 | 16.8 | 1110 | 9 | 1.39 | 12.8 | 6.27 | 18.9 | 2290 | 7.11 | 3.64 | 16.2 | 0.706 | 11.9 |
| O=C(/C=C/c1ccc(C(F)(F)F)cc1)Nc1ccc(C=C2c3ccccc3C(=O)c3ccccc32)cc1 | 3.4 | > 100 | 8.47 | > 100 | 3320 | > 100 | 3.33 | 48 | 7380 | > 100 | 6.18 | 38.4 | 8.61 | > 100 | 2710 | 13.4 | 4.54 | > 100 | 14.2 | > 100 |
| Cc1cc(C)c2c(n1)sc1c(N)ncnc12 | > 25 | > 25 | 12.9 | > 25 | > 25000 | > 25 | 11.3 | > 25 | > 25000 | > 25 | 17 | > 25 | > 25 | > 25 | > 25000 | > 25 | > 25 | > 25 | 11.9 | > 25 |
| CCOc1ccc(/C(C=O)=C(\Cl)c2ccc(OC)cc2)cc1 |  | > 100 |  | > 100 |  | > 100 |  | > 100 |  | > 100 |  | > 100 |  | > 100 |  | > 100 |  | > 100 |  | > 100 |
| COC(=O)C(CCC(=O)CCl)N1C(=O)c2ccccc2C1=O (stereo not given) |  | 6.34 |  | 24.2 |  | 22.8 |  | 21.8 |  | 23.5 |  | 40.3 |  | 37.1 |  | 16.1 |  | 18.5 |  | 29.9 |
| Cn1c(=O)c2[nH]c(SCCN3CCOCC3)nc2n(C)c1=S |  | > 100 |  | > 100 |  | > 100 |  | > 100 |  | > 100 |  | > 100 |  | > 100 |  | > 100 |  | > 100 |  | > 100 |
